{"source": "patent US20100119595A1", "about": "“Monounsaturated fatty acids and perhydrocyclopentanophenanthrene nucleus combination molecules, and their precursors, and the use of all of these as weight-loss agents” (priority 2001, published 2010)", "assay": "Human study of estrone eicosenoate as anti-obesity drug (Example 3)", "assay_type": "in vivo", "details": "humans, oral capsule every morning, 0.75 or 0.375 micromoles/kg", "procedure": "• 1) The required number of subjects are properly screened to fulfill the necessary qualifications, • 2) appropriate laboratory evaluation are performed, • 3) various aspects of positive drug response in a manner acceptable for drug approval are recorded, • 4) adverse drug effects are documented, and • 5) patients are adequately followed-up.\nIn this random, double-blind, placebo controlled study, subjects are selected to one of three groups and take a capsule orally every morning containing one of the following: a) sunflower oil (placebo), b) estrone eicosenoate dissolved in sunflower oil at a dose of 0.75 micromoles/kg, or c) estrone eicosenoate dissolved in sunflower oil at a dose of to 0.375 micromoles/kg.\nSubjects report weekly for measurements and assessment of any side effects. […]\nDifferent tests are performed at least five different times during each study, namely at the screening of potential participants, at the beginning of the study, weekly during the trials, at the end of the first 4 week period and at the end of the second 4 week treatment period. • 1) SCREENING: Subjects are screened to exclude hypothyroidism, pregnancy, and heart disease. […] Subjects selected to participate in the studies have the following initial measurements: WEIGHT, WAIST to HIP RATIO, HEIGHT, BMI (calculated), BODY FAT % & TOTAL BODY FAT (via bioelectrical impedance method). […]"}
{"smiles": "CCCCCCCC/C=C\\CCCCCCCCCC(=O)Oc1ccc2c(c1)CC[C@@H]1[C@@H]2CC[C@]2(C)C(=O)CC[C@@H]12", "note": "[EE, estrone eicosenoate]", "values": [{"measurement": "appetite", "value": "reduces appetite"}, {"measurement": "weight loss, loss of body fat, and/or decrease of body fat%", "value": "produces weight loss"}]}
